Results reported in ChEMBL document CHEMBL3044712, “Herbicidal potential of pseudoguaninolide sesquiterpenes on wild oat, Avena fatua L” (Biochem Syst Ecol, 2012).

How the values were obtained:
[1] = test system: Avena fatua; assay: Phytotoxicity against Avena fatua assessed as seed germination at 0.125 mM measured after 10 days sowing (reference value: 50 +/- 2.89%); format: functional
[2] = test system: Avena fatua; assay: Phytotoxicity against Avena fatua assessed as seed germination at 0.5 mM measured after 10 days sowing (reference value: 50 +/- 2.89%); format: functional
[3] = test system: Avena fatua; assay: Phytotoxicity against Avena fatua assessed as seed germination at 1 mM measured after 10 days sowing (reference value: 50 +/- 2.89%); format: functional
[4] = test system: Avena fatua; assay: Phytotoxicity against Avena fatua assessed as inhibition of root growth as root length at 1 mM (reference value: 9.6 +/- 0.36%); format: functional; settings: read-out: GI
[5] = test system: Avena fatua; assay: Phytotoxicity against Avena fatua assessed as seed germination at 0.25 mM measured after 10 days sowing (reference value: 50 +/- 2.89%); format: functional
[6] = test system: Avena fatua; assay: Phytotoxicity against Avena fatua assessed as inhibition of root growth as root length; format: functional, organism-based
[7] = test system: Avena fatua; assay: Phytotoxicity against Avena fatua assessed as inhibition of root growth as root length at 0.125 mM (reference value: 9.6 +/- 0.36%); format: functional; settings: read-out: GI
[8] = test system: Avena fatua; assay: Phytotoxicity against Avena fatua assessed as inhibition of root growth as root length at 0.5 mM (reference value: 9.6 +/- 0.36%); format: functional; settings: read-out: GI
[9] = test system: Avena fatua; assay: Phytotoxicity against Avena fatua assessed as inhibition of root growth as root length at 0.25 mM measured after 10 days sowing (reference value: 9.6 +/- 0.36%); format: functional; settings: 240 h, read-out: GI
[10] = test system: Avena fatua; assay: Phytotoxicity against Avena fatua assessed as inhibition of shoot growth as shoot length at 0.5 mM (reference value: 11.2 +/- 0.35%); format: functional; settings: read-out: GI
[11] = test system: Avena fatua; assay: Phytotoxicity against Avena fatua assessed as inhibition of shoot growth as shoot length at 2 mM (reference value: 11.2 +/- 0.35%); format: functional; settings: read-out: GI
[12] = test system: Avena fatua; assay: Phytotoxicity against Avena fatua assessed as inhibition of root growth as root length at 2 mM (reference value: 9.6 +/- 0.36%); format: functional; settings: read-out: GI
[13] = test system: Avena fatua; assay: Phytotoxicity against Avena fatua assessed as inhibition of shoot growth as shoot length at 0.25 mM (reference value: 11.2 +/- 0.35%); format: functional; settings: read-out: GI
[14] = test system: Avena fatua; assay: Phytotoxicity against Avena fatua assessed as inhibition of shoot growth as shoot length; format: functional, organism-based
[15] = test system: Avena fatua; assay: Phytotoxicity against Avena fatua assessed as inhibition of shoot growth as shoot length at 0.125 mM (reference value: 11.2 +/- 0.35%); format: functional; settings: read-out: GI
[16] = test system: Avena fatua; assay: Phytotoxicity against Avena fatua assessed as inhibition of shoot growth as shoot length at 1 mM (reference value: 11.2 +/- 0.35%); format: functional; settings: read-out: GI
[17] = test system: Avena fatua; assay: Phytotoxicity against Avena fatua assessed as seed germination at 2 mM measured after 10 days sowing (reference value: 50 +/- 2.89%); format: functional

Structure (SMILES): C=C1C(=O)O[C@@H]2[C@H]1CC[C@H](C)[C@@H]1C=CC(=O)[C@@]21C [AMBROSIN]
- Activity [1]: 50%
- Activity [2]: 28.3%
- Activity [3]: 26.7%
- inhibition of growth at 1000 µM [4]: 92.4%
- Activity [5]: 36.7%
- EC50 [6]: 220 µM
- inhibition of growth at 125 µM [7]: 22.9%
- inhibition of growth at 500 µM [8]: 85.4%
- inhibition of growth at 250 µM [9]: 57.3%
- inhibition of growth at 500 µM [10]: 74.1%
- inhibition of growth at 2000 µM [11]: 86.6%
- inhibition of growth at 2000 µM [12]: 99%
- inhibition of growth at 250 µM [13]: 51.8%
- EC50 [14]: 300 µM
- inhibition of growth at 125 µM [15]: 19.6%
- inhibition of growth at 1000 µM [16]: 75.9%
- Activity [17]: 26.7%

Structure (SMILES): C=C1C(=O)O[C@@H]2[C@H]1CC[C@H](C)[C@@]1(O)C=CC(=O)[C@@]21C [HYMENIN]
- Activity [1]: 38.3%
- Activity [2]: 33.3%
- Activity [3]: 30%
- inhibition of growth at 1000 µM [4]: 72.9%
- Activity [5]: 36.7%
- EC50 [6]: 570 µM
- inhibition of growth at 125 µM [7]: 8.3%
- inhibition of growth at 500 µM [8]: 37.5%
- inhibition of growth at 250 µM [9]: 15.6%
- inhibition of growth at 500 µM [10]: 39.3%
- inhibition of growth at 2000 µM [11]: 80.4%
- inhibition of growth at 2000 µM [12]: 95.6%
- inhibition of growth at 250 µM [13]: 25%
- EC50 [14]: 670 µM
- inhibition of growth at 125 µM [15]: 10.7%
- inhibition of growth at 1000 µM [16]: 60.7%
- Activity [17]: 30%

Structure (SMILES): C=C(C(=O)O)[C@@H]1CC[C@H](C)[C@@H]2CCC(=O)[C@@]2(C)C1 [DAMCINIC ACID]
- Activity [1]: 41.7%
- Activity [2]: 38.3%
- Activity [3]: 38.3%
- inhibition of growth at 1000 µM [4]: 64.6%
- Activity [5]: 40%
- EC50 [6]: 600 µM
- inhibition of growth at 125 µM [7]: 4.2%
- inhibition of growth at 500 µM [8]: 50%
- inhibition of growth at 250 µM [9]: 31.3%
- inhibition of growth at 500 µM [10]: 29.5%
- inhibition of growth at 2000 µM [11]: 70.5%
- inhibition of growth at 2000 µM [12]: 79.2%
- inhibition of growth at 250 µM [13]: 6.3%
- EC50 [14]: 1090 µM
- inhibition of growth at 125 µM [15]: 3.6%
- inhibition of growth at 1000 µM [16]: 44.6%
- Activity [17]: 28.3%

Structure (SMILES): C=C1C(=O)O[C@@H]2[C@H]1CC[C@H](C)[C@@H]1CCC(=O)[C@@]21C [DAMSIN]
- Activity [1]: 46.7%
- Activity [2]: 30%
- Activity [3]: 26.7%
- inhibition of growth at 1000 µM [4]: 92.4%
- Activity [5]: 35%
- EC50 [6]: 240 µM
- inhibition of growth at 125 µM [7]: 30.2%
- inhibition of growth at 500 µM [8]: 65.6%
- inhibition of growth at 250 µM [9]: 55.2%
- inhibition of growth at 500 µM [10]: 22.3%
- inhibition of growth at 2000 µM [11]: 83.9%
- inhibition of growth at 2000 µM [12]: 98.2%
- inhibition of growth at 250 µM [13]: 5.4%
- EC50 [14]: 830 µM
- inhibition of growth at 125 µM [15]: 1.8%
- inhibition of growth at 1000 µM [16]: 66.1%
- Activity [17]: 16.7%

Structure (SMILES): C=C1C(=O)O[C@@H]2[C@H]1CC[C@H](C)C1=CCC(=O)[C@]12C [NEOAMBROSIN]
- Activity [1]: 46.7%
- Activity [2]: 36.7%
- Activity [3]: 40%
- inhibition of growth at 1000 µM [4]: 61.5%
- Activity [5]: 40%
- EC50 [6]: 480 µM
- inhibition of growth at 125 µM [7]: 11.5%
- inhibition of growth at 500 µM [8]: 45.6%
- inhibition of growth at 250 µM [9]: 40.6%
- inhibition of growth at 500 µM [10]: 20.5%
- inhibition of growth at 2000 µM [11]: 84.8%
- inhibition of growth at 2000 µM [12]: 94.8%
- inhibition of growth at 250 µM [13]: 10.7%
- EC50 [14]: 960 µM
- inhibition of growth at 125 µM [15]: 2.7%
- inhibition of growth at 1000 µM [16]: 43.8%
- Activity [17]: 23.3%
